Source: patent publication US20160103138A1, “METHODS FOR ANALYZING ELASTIC FIBER INJURY MARKERS AND DIAGNOSIS OF DISEASES ASSOCIATED WITH ELASTIC FIBER INJURY” (priority 2013, published 2016)

Legend:
[1] = 6N HCl (Ma, S. et al., 2011); cited from earlier work
[2] = Stability of DES-d4 (IS) in 6N HCl at 110° C., recovery by LC-MS/MS; assay type: physicochemical; conditions: heated at 110° C. for 24, 48, and 72 hours
Description: Step 1: Acid hydrolysis: DES-d4 IS (5 ng) was added to the analytical samples (0.5 ml) in a glass vial with equal volumes of concentrated HCl (37%). Air in the vial was displaced with nitrogen, and was heated at 110° C. for 24 hours. The hydrolyzed sample was filtered and evaporated to dryness.
Step 3: LC-MS/MS analysis: A TSQ Discovery electrospray tandem mass spectrometer (Thermo Fisher Scientific) was used for LC-MS/MS analysis. HPLC conditions used were a 2 mm×150 mm dC18 (3 μm) column (Waters, Mass.) and the mobile phase A (7 mM HFBA/5 mM NH4Ac in water) and B (7 mM HFBA/5 mM NH4Ac in 80% acetonitrile) were programmed linearly from 100% A to 82% A in 12 m. Quantitation was performed by selected reaction monitoring (SRM) of the transitions of both DES and IDS (m/z 526 to m/z 481+m/z 397) and the IS (m/z 530 to m/z 485), with collision energy set at 33 V for both transitions, collision gas pressure was 1.5 mTorr, tube lens at 132 V, with sheath gas pressure set at 45 and auxiliary gas pressure at 6 units and ion spray voltage at 3.8 kV. The scan time was set at 1.00 ms and both quadrupoles (Q1 and Q3) were at 0.7 Da FWHM.
The stability of DES-d4 and reliability during use as the IS for the isotope dilution LC-MS/MS analysis of DES and IDS were examined. […]

[3] = test system: desmosine and isodesmosine (DI) in plasma (elastin degradation); test: Effect of alpha-1 antitrypsin augmentation therapy on DI levels in plasma of AATD patients; assay type: in vivo, human; conditions: for change in DI in plasma from baseline: 11 patients, intravenous replacement
Description: (§1) There were 4 sources of body fluid samples analyzed: 1) plasma samples from 47 patients receiving alpha-1 antitrypsin protein from human blood sources, commercially available, compared with 50 AATD patients not on AAT augmentation and 50 normal subjects; 2) 11 patients with homozygous severe AATD who provided plasma samples before the start of IV therapy and then 12 and 24 weeks later; 3) 10 patients with homozygous AATD receiving IV replacement provided BALF at 12 weeks (the dose administered was 60 mg/kg body weight each week in the above patient groups); and 4) patients received a recombinantly produced AAT which was administered as an aerosol for 8 weeks. (Spencer et al., 2005) (the administered dose was 250 mg of aerosolized transgenic AAT each day). Eight patients provided BALF, 12 patients provided plasma samples, and 5 patients provided urine samples at baseline and after 8 weeks of aerosol therapy.
(§2) The following 3 methods were used to define the alpha-1 genomes: 1) genotype by allelic discrimination using TaqMan (S&Z alleles), ABI 7500 Fast Real-time PCR System; 2) AAT Level by Immunogenic assay, Dade Behring Nephelometer BN II and 3) phenotyping by isoelectric focusing, Pharmacia Biotech Multiphore II. The method of analysis for desmosine and isodesmosine (DI) in plasma, BALF and urine is as described. (Ma et al., 2011) The content of DI in BALF was calculated as the concentration of DI per ml of BALF using urea as a marker of dilution. (Rennard et al., 1986).
(§3) High performance liquid chromatography and tandem mass spectrometry as described (Ma et al., 2011) were used.
(§4) The T-test was used to compare the effects of augmentation therapy on the large patient cohorts. The paired T-test was used to compare the changes before and after therapy in individuals. The linear regression was used to determine the relationships of age to levels of DI.

[4] = test system: desmosine and isodesmosine (DI) in epithelial lining fluid obtained by BALF (elastin degradation); test: Effect of alpha-1 antitrypsin augmentation therapy on DI levels in BALF of AATD patients; assay type: in vivo, human
Description: as §1
The following 3 methods were used to define the alpha-1 genomes: 1) genotype by allelic discrimination using TaqMan (S&Z alleles), ABI 7500 Fast Real-time PCR System; 2) AAT Level by Immunogenic assay, Dade Behring Nephelometer BN II and 3) phenotyping by isoelectric focusing, Pharmacia Biotech Multiphore II. […] (Ma et al., 2011) The content of DI in BALF was calculated as the concentration of DI per ml of BALF using urea as a marker of dilution. […]

[5] = test system: urinary desmosine; conditions: cited from earlier work
[6] = test system: leukotriene B-5, interleukin-8 and neutrophil elastase in sputum; conditions: after weeks of supplementation therapy with I.V. AAT (Stockley et al., 2002); cited from earlier work
[7] = test system: urinary desmosine and isodesmosine (DI); test: Effect of aerosol alpha-1 antitrypsin augmentation therapy on urinary DI (free and total); assay type: in vivo, human; conditions: before vs after aerosol augmentation therapy
Description: as §1, §2, §3, §4

For N[C@@H](CCCc1c(CC[C@H](N)C(=O)O)c[n+](CCCC[C@H](N)C(=O)O)cc1CC[C@H](N)C(=O)O)C(=O)[O-] [DES, Desmosine], the “stability during acid hydrolysis (in words)” value [1] is listed as “stable”.
In the case of [2H]C([2H])(C[C@H](N)C(=O)O)C([2H])([2H])c1c(CC[C@H](N)C(=O)O)c[n+](CCCC[C@H](N)C(=O)O)cc1CC[C@H](N)C(=O)O [DES-d4], the “stability of DES-d4 under acid hydrolysis (in words)” value [2] is reported as “stable with nearly complete recovery”.
In the case of NC(CCCC[n+]1cc(CCC(N)C(=O)O)cc(CCC(N)C(=O)O)c1CCCC(N)C(=O)O)C(=O)O (stereo not drawn) [IDS, isodesmosine], the “stability during acid hydrolysis (in words)” value [1] is given as “stable”.
For “AAT: alpha-1 antitrypsin protein from human blood sources, commercially available, given intravenously as augmentation therapy”, the “change in DI in plasma from baseline” value ([3]; 12 weeks of therapy) was −13.9%, the “change in DI in plasma from baseline” value ([3]; 24 weeks of therapy) was −20.3% and the “mean level of DI in plasma” value ([3]; AATD patients receiving augmentation therapy (IV, 60 mg/kg each week), n=50, no augmentation 0.36, normal 0.22) was 0.25 ng/mL. The “plasma levels of DI, mean±SD” value ([3]; FIG. 7, augmentation group, n=50, no augmentation 0.36±0.01, normal 0.22±0.04) was 0.25±0.01, the “overall average change of DI in BALF” value ([4]; 10 patients, before vs 12 weeks after IV augmentation therapy, p=0.0273) was −37% and the “drop of mean post-treatment urinary desmosine from pre-treatment levels” value ([5]; two AATD patients, monthly infusions of 260 mg/kg, followed 18 months (Stone et al., 1995)) was “exceeded 35%”. The “levels of leukotriene B-5, interleukin-8 and neutrophil elastase in sputum” value [6] was “reduced levels”.
For “Prolastin: AAT supplementation product (Bayer Company)”, the “urinary desmosine excretion during supplementation vs run in” value ([5]; 12 AATD subjects, weekly 60 mg/kg for 4 weeks (Gottlieb et al., 2000)) is given as “unchanged”.
In the case of “aerosolized transgenic AAT: recombinantly produced AAT which was administered as an aerosol for 8 weeks”, the “mean decrease of DI in plasma” value ([3]; 12 patients, before vs after 8 weeks aerosol augmentation therapy (250 mg each day), not statistically significant (p=0.1675)) is reported as 6.5%, the “mean increase in DI in plasma” value ([3]; the 3 of 12 patients with increase, aerosol augmentation therapy, not statistically significant) is reported as 4.3% and the “average decrease of DI in plasma” value ([3]; the 9 of 12 patients with reduction, aerosol augmentation therapy, p=0.0142) is reported as 12.1%. The “mean reduction of DI levels in BALF” value ([4]; 8 patients, AAT by aerosol administration, 8 weeks, p=0.0078) was −58.5%, the “reduction in the free component of DI excretion in urine” value ([7]; 4 of the 5 subjects) was 0.1-13.0% and the “average reduction of percent of free DI over total DI excretion in urine” value ([7]; 5 subjects, p=0.0625) was 21.6%. For the same molecule, the “increase in excretion of free DI in urine” value ([7]; one of the 5 subjects) was 75.3%.
